Test results as given in patent publication US11617726B2, “Method for preventing, treating, or ameliorating a microbial infection” (priority 2018, dated 2023).

Tested on: Acinetobacter baumannii isolates
Assay: Antimicrobial susceptibility test, disc diffusion method (CLSI M100-S24)
Assay type: cell-based
Set-up: key to Inhibition zone: “NZ” indicated that no zone of inhibition was observed
Settings: for Inhibition zone: disc diffusion
Outline: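 Disc diffusion per CLSI M100-S24 on 33 MDR clinical A. baumannii isolates from burn wards; 0.5 McFarland inoculum swabbed onto Mueller-Hinton agar, incubated aerobically 35-37° C, 18-20 h. Zone diameters measured to nearest mm and categorized S/I/R by CLSI breakpoints.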

**Q.** Which susceptibility category (isolate AB1, LEV disc) does the source give for C[C@H]1COc2c(N3CCN(C)CC3)c(F)cc3c(=O)c(C(=O)O)cn1c23 [LEV, Levofloxacin] here?
**A.** S (Sensitive ≥17)

**Q.** And the Inhibition zone (isolate AB1)?
**A.** 30 mm

**Q.** What about the susceptibility category (isolate AB2, LEV disc) of the same compound?
**A.** S (Sensitive ≥17)

**Q.** And the Inhibition zone (isolate AB2)?
**A.** 30 mm

**Q.** And the susceptibility category (isolate AB3, LEV disc)?
**A.** S (Sensitive ≥17)

**Q.** What about the Inhibition zone (isolate AB3) of the same compound?
**A.** 29 mm

**Q.** And the susceptibility category (isolate AB4, LEV disc)?
**A.** S (Sensitive ≥17)

**Q.** And the Inhibition zone (isolate AB4)?
**A.** 30 mm

**Q.** What about the susceptibility category (isolate AB5, LEV disc) of the same compound?
**A.** S (Sensitive ≥17)

**Q.** And the Inhibition zone (isolate AB5)?
**A.** 19 mm

**Q.** What about the susceptibility category (isolate AB6, LEV disc) of the same compound?
**A.** S (Sensitive ≥17)

**Q.** And the Inhibition zone (isolate AB6)?
**A.** 21 mm

**Q.** What about the susceptibility category (isolate AB7, LEV disc) of the same compound?
**A.** I (Intermediate 14-16)

**Q.** What about the Inhibition zone (isolate AB7) of the same compound?
**A.** 14 mm

**Q.** What about the susceptibility category (isolate AB8, LEV disc) of the same compound?
**A.** I (Intermediate 14-16)

**Q.** And the Inhibition zone (isolate AB8)?
**A.** 15 mm

**Q.** What about the susceptibility category (isolate AB9, LEV disc) of the same compound?
**A.** S (Sensitive ≥17)

**Q.** What about the Inhibition zone (isolate AB9) of the same compound?
**A.** 28 mm

**Q.** What about the susceptibility category (isolate AB10, LEV disc) of the same compound?
**A.** I (Intermediate 14-16)

**Q.** And the Inhibition zone (isolate AB10)?
**A.** 14 mm

**Q.** And the susceptibility category (isolate AB11, LEV disc)?
**A.** R (Resistant ≤13)

**Q.** What about the Inhibition zone (isolate AB11) of the same compound?
**A.** 11 mm

**Q.** And the susceptibility category (isolate AB12, LEV disc)?
**A.** R (Resistant ≤13)

**Q.** What about the Inhibition zone (isolate AB12) of the same compound?
**A.** 10 mm

**Q.** What about the susceptibility category (isolate AB13, LEV disc) of the same compound?
**A.** R (Resistant ≤13)

**Q.** And the Inhibition zone (isolate AB13)?
**A.** 8 mm

**Q.** What about the susceptibility category (isolate AB14, LEV disc) of the same compound?
**A.** R (Resistant ≤13)

**Q.** And the Inhibition zone (isolate AB14)?
**A.** 11 mm

**Q.** And the susceptibility category (isolate AB15, LEV disc)?
**A.** I (Intermediate 14-16)

**Q.** And the Inhibition zone (isolate AB15)?
**A.** 15 mm

**Q.** What about the susceptibility category (isolate AB16, LEV disc) of the same compound?
**A.** R (Resistant ≤13)

**Q.** What about the Inhibition zone (isolate AB16) of the same compound?
**A.** NZ

**Q.** And the susceptibility category (isolate AB17, LEV disc)?
**A.** R (Resistant ≤13)

**Q.** And the Inhibition zone (isolate AB17)?
**A.** 11 mm

**Q.** What about the susceptibility category (isolate AB18, LEV disc) of the same compound?
**A.** R (Resistant ≤13)

**Q.** What about the Inhibition zone (isolate AB18) of the same compound?
**A.** 13 mm

**Q.** What about the susceptibility category (isolate AB19, LEV disc) of the same compound?
**A.** R (Resistant ≤13)

**Q.** What about the Inhibition zone (isolate AB19) of the same compound?
**A.** 11 mm

**Q.** What about the susceptibility category (isolate AB20, LEV disc) of the same compound?
**A.** R (Resistant ≤13)

**Q.** What about the Inhibition zone (isolate AB20) of the same compound?
**A.** 13 mm

**Q.** What about the susceptibility category (isolate AB21, LEV disc) of the same compound?
**A.** I (Intermediate 14-16)

**Q.** And the Inhibition zone (isolate AB21)?
**A.** 14 mm

**Q.** And the susceptibility category (isolate AB22, LEV disc)?
**A.** I (Intermediate 14-16)

**Q.** And the Inhibition zone (isolate AB22)?
**A.** 14 mm

**Q.** And the susceptibility category (isolate AB23, LEV disc)?
**A.** R (Resistant ≤13)

**Q.** And the Inhibition zone (isolate AB23)?
**A.** 11 mm

**Q.** What about the susceptibility category (isolate AB24, LEV disc) of the same compound?
**A.** R (Resistant ≤13)

**Q.** What about the Inhibition zone (isolate AB24) of the same compound?
**A.** 12 mm

**Q.** What about the susceptibility category (isolate AB25, LEV disc) of the same compound?
**A.** I (Intermediate 14-16)

**Q.** And the Inhibition zone (isolate AB25)?
**A.** 14 mm

**Q.** What about the susceptibility category (isolate AB26, LEV disc) of the same compound?
**A.** R (Resistant ≤13)

**Q.** What about the Inhibition zone (isolate AB26) of the same compound?
**A.** NZ

**Q.** What about the susceptibility category (isolate AB27, LEV disc) of the same compound?
**A.** R (Resistant ≤13)

**Q.** What about the Inhibition zone (isolate AB27) of the same compound?
**A.** 8 mm

**Q.** And the susceptibility category (isolate AB28, LEV disc)?
**A.** I (Intermediate 14-16)

**Q.** What about the Inhibition zone (isolate AB28) of the same compound?
**A.** 15 mm

**Q.** And the susceptibility category (isolate AB29, LEV disc)?
**A.** I (Intermediate 14-16)

**Q.** What about the Inhibition zone (isolate AB29) of the same compound?
**A.** 15 mm

**Q.** What about the susceptibility category (isolate AB30, LEV disc) of the same compound?
**A.** I (Intermediate 14-16)

**Q.** What about the Inhibition zone (isolate AB30) of the same compound?
**A.** 15 mm

**Q.** What about the susceptibility category (isolate AB31, LEV disc) of the same compound?
**A.** R (Resistant ≤13)

**Q.** And the Inhibition zone (isolate AB31)?
**A.** 10 mm

**Q.** And the susceptibility category (isolate AB32, LEV disc)?
**A.** S (Sensitive ≥17)

**Q.** What about the Inhibition zone (isolate AB32) of the same compound?
**A.** 18 mm

**Q.** And the susceptibility category (isolate AB33, LEV disc)?
**A.** S (Sensitive ≥17)

**Q.** What about the Inhibition zone (isolate AB33) of the same compound?
**A.** 30 mm

**Q.** Which results are given for NCC[C@H](O)C(=O)N[C@@H]1C[C@H](N)[C@@H](O[C@H]2O[C@H](CN)[C@@H](O)[C@H](O)[C@H]2O)[C@H](O)[C@H]1O[C@H]1O[C@H](CO)[C@@H](O)[C@H](N)[C@H]1O [AK, Amikacin]?
**A.** susceptibility category (isolate AB1, AK disc): S (Sensitive ≥17); Inhibition zone (isolate AB1): 24 mm; susceptibility category (isolate AB2, AK disc): S (Sensitive ≥17); Inhibition zone (isolate AB2): 20 mm; susceptibility category (isolate AB3, AK disc): S (Sensitive ≥17); Inhibition zone (isolate AB3): 26 mm; susceptibility category (isolate AB4, AK disc): S (Sensitive ≥17); Inhibition zone (isolate AB4): 21 mm; Inhibition zone (isolate AB5): 7 mm; susceptibility category (isolate AB6, AK disc): S (Sensitive ≥17); Inhibition zone (isolate AB6): 30 mm; Inhibition zone (isolate AB7): NZ; Inhibition zone (isolate AB8): 12 mm; susceptibility category (isolate AB9, AK disc): S (Sensitive ≥17); Inhibition zone (isolate AB9): 22 mm; Inhibition zone (isolate AB10): NZ; Inhibition zone (isolate AB11): NZ; susceptibility category (isolate AB12, AK disc): S (Sensitive ≥17); Inhibition zone (isolate AB12): 21 mm; susceptibility category (isolate AB13, AK disc): S (Sensitive ≥17); Inhibition zone (isolate AB13): 22 mm; Inhibition zone (isolate AB14): NZ; Inhibition zone (isolate AB15): 13 mm; susceptibility category (isolate AB16, AK disc): S (Sensitive ≥17); Inhibition zone (isolate AB16): 19 mm; susceptibility category (isolate AB17, AK disc): S (Sensitive ≥17); Inhibition zone (isolate AB17): 22 mm; Inhibition zone (isolate AB18): 14 mm; Inhibition zone (isolate AB19): 14 mm; Inhibition zone (isolate AB20): NZ; Inhibition zone (isolate AB21): 11 mm; Inhibition zone (isolate AB22): NZ; Inhibition zone (isolate AB23): NZ; Inhibition zone (isolate AB24): 14 mm; Inhibition zone (isolate AB25): NZ; susceptibility category (isolate AB26, AK disc): S (Sensitive ≥17); Inhibition zone (isolate AB26): 18 mm; Inhibition zone (isolate AB27): 9 mm; Inhibition zone (isolate AB28): 15 mm; Inhibition zone (isolate AB29): 15 mm; Inhibition zone (isolate AB30): 15 mm; Inhibition zone (isolate AB31): NZ; Inhibition zone (isolate AB32): NZ; susceptibility category (isolate AB33, AK disc): S (Sensitive ≥17); Inhibition zone (isolate AB33): 25 mm

**Q.** What does the source list for CC(C)(O/N=C(\C(=O)N[C@@H]1C(=O)N2C(C(=O)[O-])=C(C[n+]3ccccc3)CS[C@H]12)c1csc(N)n1)C(=O)O [CAZ, Ceftazidime]?
**A.** Inhibition zone (isolate AB1): 20 mm; Inhibition zone (isolate AB2): 17 mm; Inhibition zone (isolate AB3): 26 mm; Inhibition zone (isolate AB4): 21 mm; Inhibition zone (isolate AB5): 9 mm; Inhibition zone (isolate AB6): 28 mm; Inhibition zone (isolate AB7): NZ; Inhibition zone (isolate AB8): NZ; Inhibition zone (isolate AB9): 21 mm; Inhibition zone (isolate AB10): NZ; Inhibition zone (isolate AB11): NZ; Inhibition zone (isolate AB12): NZ; Inhibition zone (isolate AB13): NZ; Inhibition zone (isolate AB14): NZ; Inhibition zone (isolate AB15): NZ; Inhibition zone (isolate AB16): 32 mm; Inhibition zone (isolate AB17): 12 mm; Inhibition zone (isolate AB18): NZ; Inhibition zone (isolate AB19): NZ; Inhibition zone (isolate AB20): NZ; Inhibition zone (isolate AB21): NZ; Inhibition zone (isolate AB22): NZ; Inhibition zone (isolate AB23): NZ; Inhibition zone (isolate AB24): NZ; Inhibition zone (isolate AB25): 17 mm; Inhibition zone (isolate AB26): 15 mm; Inhibition zone (isolate AB27): 8 mm; Inhibition zone (isolate AB28): 8 mm; Inhibition zone (isolate AB29): NZ; Inhibition zone (isolate AB30): NZ; Inhibition zone (isolate AB31): 8 mm; Inhibition zone (isolate AB32): 8 mm; Inhibition zone (isolate AB33): 22 mm
